Data set [1] deals with Staphylococcus aureus. Put plainly: Antimicrobial activity against Staphylococcus aureus ATCC 29213 in presence of 50% human serum. The format is functional.
Data set [2] has as its system Staphylococcus aureus. As to the kind of experiment: Antimicrobial activity against Staphylococcus aureus ATCC 29213. The format is functional.
Data set [3] has as its system Streptococcus pneumoniae. Put plainly: Antimicrobial activity against Streptococcus pneumoniae in presence of 50% human serum. The format is functional.
Data set [4] relates to Streptococcus pneumoniae. As to the kind of experiment: Antimicrobial activity against Streptococcus pneumoniae. The data set is classed as functional.
The next data set relates to Rattus norvegicus. As to the kind of experiment: Dose normalized AUC in rat at 2.8 to 9.5 mg/kg, iv. The conditions noted are these: in vivo. More on the design: dose 2.8-9.5 mg/kg, route intravenous. The format is ADME, organism-based.
Data set [5] can be described thus: Half life in rat at 2.8 to 9.5 mg/kg, iv. The data set is classed as ADME, organism-based. Details: dose 2.8-9.5 mg/kg, route intravenous. The conditions noted are these: in vivo.
Data set [6] deals with Staphylococcus aureus. Put plainly: Antimicrobial activity against Staphylococcus aureus in rat thigh assessed as log reduction of CFU at 50 mg/kg, iv after 6 hrs. The data set is classed as functional.
Data set [7] is described as follows: Volume of distribution at steady state in rat at 2.8 to 9.5 mg/kg, iv. The data set is classed as ADME, organism-based. The conditions noted are these: in vivo, read-out: Vdss. More on the design: dose 2.8-9.5 mg/kg, route intravenous.
A short description of data set [8]: Clearance in rat at 2.8 to 9.5 mg/kg, iv. The data set is classed as ADME, organism-based. Details: dose 2.8-9.5 mg/kg, route intravenous. The conditions noted are these: in vivo.
The test system of data set [9] is Streptococcus pneumoniae. Put plainly: Antimicrobial activity against Streptococcus pneumoniae infected in rat lung infection model assessed as log reduction of bacterial density at 3 mg/kg, po. The data set is classed as functional.
The test system of data set [10] is Streptococcus pneumoniae. Put plainly: Antimicrobial activity against Streptococcus pneumoniae infected in rat lung infection model assessed as log reduction of bacterial density at 30 mg/kg, po. The format is functional.
In data set [11] the test system is Staphylococcus aureus. As to the kind of experiment: Antimicrobial activity against Staphylococcus aureus in rat thigh assessed as log reduction of CFU at 30 mg/kg, iv after 8 hrs. The format is functional.
Data set [12] concerns Staphylococcus aureus. As to the kind of experiment: Antimicrobial activity against Staphylococcus aureus in rat thigh assessed as log reduction of CFU at 3 mg/kg, iv after 8 hrs. The data set is classed as functional.
Data set [13] concerns Staphylococcus aureus. Put plainly: Antimicrobial activity against Staphylococcus aureus ATCC 29213 infected in Sprague-Dawley rat cyclophosphamide-induced neutropenic sepsis model assessed as host survival at 25 mg/kg, iv administered 1 hr after bacterial infection measured up to 120 hrs. The conditions noted are these: ATCC 29213, iv.
For data set [14], the system named is Staphylococcus aureus. Put plainly: Antimicrobial activity against Staphylococcus aureus at 25 mg/kg, iv.
Data set [15] deals with Streptococcus pneumoniae. As to the kind of experiment: Antimicrobial activity against Streptococcus pneumoniae infected in rat lung infection model assessed as log reduction of bacterial density at 38.5 mg/kg, iv. The format is functional.

Values after ≈ are worked out from the molar mass of the structure shown. Active and inactive are the calls of the source.

The record followed here is ChEMBL document CHEMBL3259685, “Successful application of serum shift prediction models to the design of dual targeting inhibitors of bacterial gyrase B and topoisomerase IV with improved in vivo efficacy” (Bioorg Med Chem Lett, 2014).

As usually defined, the MIC is the lowest concentration that inhibits growth of the organism. On to `CCNC(=O)Nc1nc2cc(-c3ccc(N)nc3)cc(-c3ncccn3)c2[nH]1`, for which the values for the MIC in the data set with Staphylococcus aureus [1] and in the data set with Staphylococcus aureus [2] were 0.25 µg/mL and 0.125 µg/mL (≈ 0.334 µM), respectively.
The corresponding values for `CCNC(=O)Nc1nc2cc(-c3cnc4ccccc4c3)cc(-c3ncccn3)c2[nH]1` are 2 µg/mL and 0.032 µg/mL (≈ 0.0782 µM).
With `CCNC(=O)Nc1nc2cc(-c3cccnc3)cc(-n3cccn3)c2[nH]1`, the MIC turned out to be 4 µg/mL in the data set on Staphylococcus aureus [1] and 0.125 µg/mL (≈ 0.36 µM) with Staphylococcus aureus [2].
The half-life is the time needed for the level to fall by half in the phase considered. For orientation: clearance means the volume of plasma or blood freed of the substance per unit of time. As for `CCNC(=O)Nc1nc2cc(-c3cccnc3)cc(-c3ncccc3F)c2[nH]1`, the MIC turned out to be 0.625 µg/mL with Staphylococcus aureus [1], 0.004 µg/mL (≈ 0.0106 µM) against Streptococcus pneumoniae [4] and 0.031 µg/mL (≈ 0.0824 µM) against Staphylococcus aureus [2]. Besides, the “fold change (FC)” value with Streptococcus pneumoniae [3] is 20. Further, in the data set on Rattus norvegicus, the AUC/dose was 1.1 µg·h/mL. The half-life in data set [5] is 42 min. Also, in the data set on Staphylococcus aureus [6], the FC stood at 1.5. Moreover, the Vd in [7] turned out to be 1.6 L/kg. The same compound yielded a clearance in [8] of 14 mL/min/kg.
As to `CCNC(=O)Nc1nc2cc(-c3ccc[n+]([O-])c3)cc(-c3ncccc3F)c2[nH]1`, the MIC in the data set on Staphylococcus aureus [1] stood at 0.5 µg/mL; in the data set with Staphylococcus aureus [2] it was 0.5 µg/mL (≈ 1.27 µM).
`CCNC(=O)Nc1nc2cc(-c3ccc(C(N)=O)nc3)cc(-c3ncccn3)c2[nH]1`: the values for the MIC in the data set with Staphylococcus aureus [1] and in the data set with Staphylococcus aureus [2] were 0.25 µg/mL and 0.064 µg/mL (≈ 0.159 µM), respectively.
On to `CCNC(=O)Nc1nc2cc(-c3cnc(CN4CCOCC4)nc3)cc(-c3ncccc3F)c2[nH]1`, for which the MIC with Staphylococcus aureus [1] came to 0.125 µg/mL; against Staphylococcus aureus [2], 0.125 µg/mL (≈ 0.262 µM).
Regarding `CCNC(=O)Nc1nc2cc(-c3ccc(CN(C)C)nc3)cc(-c3ncccn3)c2[nH]1`, the MIC with Staphylococcus aureus [1] worked out at 0.125 µg/mL; in the data set with Staphylococcus aureus [2], 0.5 µg/mL (≈ 1.2 µM).
With `CCNC(=O)Nc1nc2cc(-c3cnc(C(C)(C)O)nc3)cc(-c3ncccc3F)c2[nH]1`, the results for the MIC in the data set with Staphylococcus aureus [1], against Streptococcus pneumoniae [4] and against Staphylococcus aureus [2] were 0.25 µg/mL, 0.004 µg/mL (≈ 0.00919 µM) and 0.032 µg/mL (≈ 0.0735 µM), respectively. For the same compound, the FC is recorded as 3.7 in the data set with Streptococcus pneumoniae [9], 5.8 in the data set on Streptococcus pneumoniae [10], 2.1 in the data set with Staphylococcus aureus [11] and 1.7 with Staphylococcus aureus [12]. Moreover, in the data set with Streptococcus pneumoniae [3], the “fold change (FC)” value is on record as 8. In the data set with Rattus norvegicus, this compound registered an AUC/dose of 0.8 µg·h/mL. The half-life in data set [5] was 72 min. For the same compound, the Vd in data set [7] came to 2.1 L/kg. The compound also had a clearance in data set [8] of 23 mL/min/kg.
Regarding `CC(=O)NC[C@H]1CN(c2ccc(N3CCOCC3)c(F)c2)C(=O)O1` [LINEZOLID], the FC in the data set with Streptococcus pneumoniae [9] worked out at 0.8; in the data set on Streptococcus pneumoniae [10], 4.5; with Staphylococcus aureus [11], 1.4. The “fold change (FC)” value with Streptococcus pneumoniae [3] was 1. Also, the MIC was determined as 0.4 µg/mL (≈ 1.19 µM) against Streptococcus pneumoniae [4] and 1.56 µg/mL (≈ 4.62 µM) with Staphylococcus aureus [2]. The compound also returned an AUC/dose in the data set with Rattus norvegicus of 1.1 µg·h/mL. Further, the half-life in data set [5] is 42 min. Moreover, in the data set with Staphylococcus aureus [13], the survival at 25 mg/kg came out at 30%. In [7], the Vd came to 1 L/kg. The compound also had a clearance in [8] of 14.5 mL/min/kg. Besides, the result in the data set on Staphylococcus aureus [12] was inactive.
On to `CCNC(=O)Nc1nc2cc(-c3cccnc3)cc(-c3ccccn3)c2[nH]1`, for which the figures for the MIC in the data set with Staphylococcus aureus [1], with Streptococcus pneumoniae [4] and in the data set with Staphylococcus aureus [2] were 2 µg/mL, 0.004 µg/mL (≈ 0.0112 µM) and 0.047 µg/mL (≈ 0.131 µM), respectively. Further, the “fold change (FC)” value in the data set with Streptococcus pneumoniae [3] turned out to be 43. Also, the AUC/dose in the data set with Rattus norvegicus was 1.6 µg·h/mL. Moreover, the result with Staphylococcus aureus [14] was Active. For the same compound, the FC in the data set on Streptococcus pneumoniae [15] came out at 3. In addition, the half-life in [5] was 126 min. Besides, the survival at 25 mg/kg with Staphylococcus aureus [13] came out at 20%. In addition, the Vd in [7] was 1.1 L/kg. Besides, the clearance in data set [8] is 12.5 mL/min/kg.
